From the supplement of paper PMC10307832

Experiments:
Test in all cases: relative viability (nuclei count vs DMSO), 5 days (fraction); higher = more cells survive
Bosutinib + Dasatinib = compound: COc1cc(Nc2c(C#N)cnc3cc(OCCCN4CCN(C)CC4)c(OC)cc23)c(Cl)cc1Cl [Bosutinib] + Cc1nc(Nc2ncc(C(=O)Nc3c(C)cccc3Cl)s2)cc(N2CCN(CCO)CC2)n1 [Dasatinib] (partner 0.075 µM)
Outline: (§1)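 Relative viability divides the nuclei count in treated wells by that in vehicle wells. Lung cancer cell lines were seeded in 1536-well plates, dosed by pin tool the next day, and fixed and stained after 5 days in one step with final 0.05% Triton X-100, 1% formaldehyde and 1 ug/ml Hoechst. Dosing was a single drug or a fixed anchor-drug dose plus five library-drug doses (not always all listed) in √10 steps, and values are medians of duplicate plates imaged at 4×.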

Bosutinib + AZD7762 = compound: COc1cc(Nc2c(C#N)cnc3cc(OCCCN4CCN(C)CC4)c(OC)cc23)c(Cl)cc1Cl [Bosutinib] + NC(=O)Nc1cc(-c2cccc(F)c2)sc1C(=O)N[C@H]1CCCNC1 [AZD7762] (partner 0.2 µM)
Outline: as §1

Bosutinib + Tozasertib = compound: COc1cc(Nc2c(C#N)cnc3cc(OCCCN4CCN(C)CC4)c(OC)cc23)c(Cl)cc1Cl [Bosutinib] + Cc1cc(Nc2cc(N3CCN(C)CC3)nc(Sc3ccc(NC(=O)C4CC4)cc3)n2)n[nH]1 [Tozasertib] (partner 0.1 µM)
Outline: as §1

Bosutinib + Phenformin = compound: COc1cc(Nc2c(C#N)cnc3cc(OCCCN4CCN(C)CC4)c(OC)cc23)c(Cl)cc1Cl [Bosutinib] + N=C(N)NC(=N)NCCc1ccccc1 [Phenformin] (partner 250 µM)
Outline: as §1

Bosutinib + Pemetrexed = compound: COc1cc(Nc2c(C#N)cnc3cc(OCCCN4CCN(C)CC4)c(OC)cc23)c(Cl)cc1Cl [Bosutinib] + Nc1nc2[nH]cc(CCc3ccc(C(=O)N[C@@H](CCC(=O)O)C(=O)O)cc3)c2c(=O)[nH]1 [Pemetrexed] (partner 0.2 µM)
Outline: as §1

Bosutinib + OSI-027 = compound: COc1cc(Nc2c(C#N)cnc3cc(OCCCN4CCN(C)CC4)c(OC)cc23)c(Cl)cc1Cl [Bosutinib] + COc1cccc2cc(-c3nc([C@H]4CC[C@H](C(=O)O)CC4)n4ncnc(N)c34)[nH]c12 [OSI-027] (partner 0.5 µM)
Outline: as §1

Bosutinib + Palbociclib = compound: COc1cc(Nc2c(C#N)cnc3cc(OCCCN4CCN(C)CC4)c(OC)cc23)c(Cl)cc1Cl [Bosutinib] + CC(=O)c1c(C)c2cnc(Nc3ccc(N4CCNCC4)cn3)nc2n(C2CCCC2)c1=O [Palbociclib] (partner 0.5 µM)
Outline: as §1

Bosutinib + Trametinib = compound: COc1cc(Nc2c(C#N)cnc3cc(OCCCN4CCN(C)CC4)c(OC)cc23)c(Cl)cc1Cl [Bosutinib] + CC(=O)Nc1cccc(-n2c(=O)n(C3CC3)c(=O)c3c(Nc4ccc(I)cc4F)n(C)c(=O)c(C)c32)c1 [Trametinib] (partner 0.02 µM)
Outline: as §1

Bosutinib + Luminespib = compound: COc1cc(Nc2c(C#N)cnc3cc(OCCCN4CCN(C)CC4)c(OC)cc23)c(Cl)cc1Cl [Bosutinib] + CCNC(=O)c1noc(-c2cc(C(C)C)c(O)cc2O)c1-c1ccc(CN2CCOCC2)cc1 [Luminespib] (partner 0.01 µM)
Outline: as §1

Bosutinib + Olaparib = compound: COc1cc(Nc2c(C#N)cnc3cc(OCCCN4CCN(C)CC4)c(OC)cc23)c(Cl)cc1Cl [Bosutinib] + O=C(c1cc(Cc2n[nH]c(=O)c3ccccc23)ccc1F)N1CCN(C(=O)C2CC2)CC1 [Olaparib] (partner 8 µM)
Outline: as §1

Bosutinib + Decitabine = compound: COc1cc(Nc2c(C#N)cnc3cc(OCCCN4CCN(C)CC4)c(OC)cc23)c(Cl)cc1Cl [Bosutinib] + Nc1ncn([C@H]2C[C@H](O)[C@@H](CO)O2)c(=O)n1 [Decitabine] (partner 2 µM)
Outline: as §1

Bosutinib + Vorinostat = compound: COc1cc(Nc2c(C#N)cnc3cc(OCCCN4CCN(C)CC4)c(OC)cc23)c(Cl)cc1Cl [Bosutinib] + O=C(CCCCCCC(=O)Nc1ccccc1)NO [Vorinostat] (partner 1 µM)
Outline: as §1

Bosutinib = compound: COc1cc(Nc2c(C#N)cnc3cc(OCCCN4CCN(C)CC4)c(OC)cc23)c(Cl)cc1Cl [Bosutinib]
Outline: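 Viability is treated-well nuclei as a fraction of vehicle-well nuclei, reported as the median across plates. Before counting, lung cancer cell lines were kept overnight at 37 °C in 1536-well plates, pinned with five √10-spaced library-drug doses on vehicle-anchored plates, and left 5 days without medium change, then fixed, permeabilised and Hoechst-stained in one step, imaged at 4× and counted by MetaXpress. A plate passed only if control CV was below 25% and at least one doubling occurred.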

Bosutinib + Crizotinib = compound: COc1cc(Nc2c(C#N)cnc3cc(OCCCN4CCN(C)CC4)c(OC)cc23)c(Cl)cc1Cl [Bosutinib] + C[C@@H](Oc1cc(-c2cnn(C3CCNCC3)c2)cnc1N)c1c(Cl)ccc(F)c1Cl [Crizotinib] (partner 1 µM)
Outline: as §1

Bosutinib + Pictilisib = compound: COc1cc(Nc2c(C#N)cnc3cc(OCCCN4CCN(C)CC4)c(OC)cc23)c(Cl)cc1Cl [Bosutinib] + CS(=O)(=O)N1CCN(Cc2cc3nc(-c4cccc5[nH]ncc45)nc(N4CCOCC4)c3s2)CC1 [Pictilisib] (partner 1 µM)
Outline: as §1

Bosutinib + Lapatinib = compound: COc1cc(Nc2c(C#N)cnc3cc(OCCCN4CCN(C)CC4)c(OC)cc23)c(Cl)cc1Cl [Bosutinib] + CS(=O)(=O)CCNCc1ccc(-c2ccc3ncnc(Nc4ccc(OCc5cccc(F)c5)c(Cl)c4)c3c2)o1 [Lapatinib] (partner 2 µM)
Outline: as §1

Bosutinib + Bortezomib = compound: COc1cc(Nc2c(C#N)cnc3cc(OCCCN4CCN(C)CC4)c(OC)cc23)c(Cl)cc1Cl [Bosutinib] + CC(C)C[C@H](NC(=O)[C@H](Cc1ccccc1)NC(=O)c1cnccn1)B(O)O [Bortezomib] (partner 0.002 µM)
Outline: as §1

Bosutinib + Navitoclax = compound: COc1cc(Nc2c(C#N)cnc3cc(OCCCN4CCN(C)CC4)c(OC)cc23)c(Cl)cc1Cl [Bosutinib] + CC1(C)CCC(c2ccc(Cl)cc2)=C(CN2CCN(c3ccc(C(=O)NS(=O)(=O)c4ccc(N[C@H](CCN5CCOCC5)CSc5ccccc5)c(S(=O)(=O)C(F)(F)F)c4)cc3)CC2)C1 [Navitoclax] (partner 0.5 µM)
Outline: as §1

Bosutinib + Foretinib = compound: COc1cc(Nc2c(C#N)cnc3cc(OCCCN4CCN(C)CC4)c(OC)cc23)c(Cl)cc1Cl [Bosutinib] + COc1cc2c(Oc3ccc(NC(=O)C4(C(=O)Nc5ccc(F)cc5)CC4)cc3F)ccnc2cc1OCCCN1CCOCC1 [Foretinib] (partner 0.25 µM)
Outline: as §1

Bosutinib + Alpelisib = compound: COc1cc(Nc2c(C#N)cnc3cc(OCCCN4CCN(C)CC4)c(OC)cc23)c(Cl)cc1Cl [Bosutinib] + Cc1nc(NC(=O)N2CCC[C@H]2C(N)=O)sc1-c1ccnc(C(C)(C)C(F)(F)F)c1 [Alpelisib] (partner 2 µM)
Outline: as §1

Bosutinib + Linsitinib = compound: COc1cc(Nc2c(C#N)cnc3cc(OCCCN4CCN(C)CC4)c(OC)cc23)c(Cl)cc1Cl [Bosutinib] + C[C@]1(O)C[C@@H](c2nc(-c3ccc4ccc(-c5ccccc5)nc4c3)c3c(N)nccn32)C1 [Linsitinib] (partner 1 µM)
Outline: as §1

## NCI-H522
Bosutinib + Dasatinib; first compound 0.01 µM
  relative viability: 0.89
Bosutinib + Dasatinib; first compound 0.03162 µM
  relative viability: 0.691
Bosutinib + Dasatinib; first compound 0.1 µM
  relative viability: 0.794
Bosutinib + Dasatinib; first compound 1 µM
  relative viability: 0.979
Bosutinib + AZD7762; first compound 0.01 µM
  relative viability: 0.794
Bosutinib + AZD7762; first compound 0.03162 µM
  relative viability: 0.714
Bosutinib + AZD7762; first compound 0.1 µM
  relative viability: 0.698
Bosutinib + AZD7762; first compound 1 µM
  relative viability: 0.897
Bosutinib + Tozasertib; first compound 0.01 µM
  relative viability: 0.564
Bosutinib + Tozasertib; first compound 0.03162 µM
  relative viability: 0.504
Bosutinib + Tozasertib; first compound 0.1 µM
  relative viability: 0.604
Bosutinib + Tozasertib; first compound 1 µM
  relative viability: 0.485
Bosutinib + Phenformin; first compound 0.01 µM
  relative viability: 0.657
Bosutinib + Phenformin; first compound 0.03162 µM
  relative viability: 0.623
Bosutinib + Phenformin; first compound 0.1 µM
  relative viability: 0.63
Bosutinib + Phenformin; first compound 1 µM
  relative viability: 0.613
Bosutinib + Pemetrexed; first compound 0.01 µM
  relative viability: 0.982
Bosutinib + Pemetrexed; first compound 0.03162 µM
  relative viability: 0.985
Bosutinib + Pemetrexed; first compound 0.1 µM
  relative viability: 0.86
Bosutinib + Pemetrexed; first compound 1 µM
  relative viability: 0.863
Bosutinib + OSI-027; first compound 0.01 µM
  relative viability: 0.734
Bosutinib + OSI-027; first compound 0.03162 µM
  relative viability: 0.641
Bosutinib + OSI-027; first compound 0.1 µM
  relative viability: 0.682
Bosutinib + OSI-027; first compound 1 µM
  relative viability: 0.69
Bosutinib + Palbociclib; first compound 0.01 µM
  relative viability: 1.07
Bosutinib + Palbociclib; first compound 0.03162 µM
  relative viability: 0.93
Bosutinib + Palbociclib; first compound 0.1 µM
  relative viability: 0.996
Bosutinib + Palbociclib; first compound 1 µM
  relative viability: 0.8
Bosutinib + Trametinib; first compound 0.01 µM
  relative viability: 0.723
Bosutinib + Trametinib; first compound 0.03162 µM
  relative viability: 0.711
Bosutinib + Trametinib; first compound 0.1 µM
  relative viability: 0.689
Bosutinib + Trametinib; first compound 1 µM
  relative viability: 0.723
Bosutinib + Luminespib; first compound 0.01 µM
  relative viability: 1.15
Bosutinib + Luminespib; first compound 0.03162 µM
  relative viability: 1.16
Bosutinib + Luminespib; first compound 0.1 µM
  relative viability: 1.26
Bosutinib + Luminespib; first compound 1 µM
  relative viability: 1.01
Bosutinib + Olaparib; first compound 0.01 µM
  relative viability: 0.616
Bosutinib + Olaparib; first compound 0.03162 µM
  relative viability: 0.645
Bosutinib + Olaparib; first compound 0.1 µM
  relative viability: 0.735
Bosutinib + Olaparib; first compound 1 µM
  relative viability: 0.619
Bosutinib + Decitabine; first compound 0.01 µM
  relative viability: 0.572
Bosutinib + Decitabine; first compound 0.03162 µM
  relative viability: 0.671
Bosutinib + Decitabine; first compound 0.1 µM
  relative viability: 0.698
Bosutinib + Decitabine; first compound 1 µM
  relative viability: 0.658
Bosutinib + Vorinostat; first compound 0.01 µM
  relative viability: 0.873
Bosutinib + Vorinostat; first compound 0.03162 µM
  relative viability: 0.88
Bosutinib + Vorinostat; first compound 0.1 µM
  relative viability: 0.892
Bosutinib + Vorinostat; first compound 1 µM
  relative viability: 0.783
Bosutinib; 0.01 µM
  relative viability: 0.935
Bosutinib; 0.03162 µM
  relative viability: 1.03
Bosutinib; 0.1 µM
  relative viability: 1.05
Bosutinib; 1 µM
  relative viability: 0.895

## NCI-H1299
Bosutinib + Crizotinib; first compound 0.01 µM
  relative viability: 0.947
Bosutinib + Crizotinib; first compound 0.03162 µM
  relative viability: 1
Bosutinib + Crizotinib; first compound 0.1 µM
  relative viability: 0.965
Bosutinib + Crizotinib; first compound 1 µM
  relative viability: 0.942
Bosutinib + Pictilisib; first compound 0.01 µM
  relative viability: 0.777
Bosutinib + Pictilisib; first compound 0.03162 µM
  relative viability: 0.989
Bosutinib + Pictilisib; first compound 0.1 µM
  relative viability: 0.858
Bosutinib + Pictilisib; first compound 1 µM
  relative viability: 0.515
Bosutinib + Lapatinib; first compound 0.01 µM
  relative viability: 0.969
Bosutinib + Lapatinib; first compound 0.03162 µM
  relative viability: 0.99
Bosutinib + Lapatinib; first compound 0.1 µM
  relative viability: 0.903
Bosutinib + Lapatinib; first compound 1 µM
  relative viability: 0.916
Bosutinib + Bortezomib; first compound 0.01 µM
  relative viability: 1
Bosutinib + Bortezomib; first compound 0.03162 µM
  relative viability: 1.06
Bosutinib + Bortezomib; first compound 0.1 µM
  relative viability: 1.01
Bosutinib + Bortezomib; first compound 1 µM
  relative viability: 1
Bosutinib + Navitoclax; first compound 0.01 µM
  relative viability: 1.05
Bosutinib + Navitoclax; first compound 0.03162 µM
  relative viability: 1.06
Bosutinib + Navitoclax; first compound 0.1 µM
  relative viability: 0.995
Bosutinib + Navitoclax; first compound 1 µM
  relative viability: 1.03
Bosutinib + Foretinib; first compound 0.01 µM
  relative viability: 1.16
Bosutinib + Foretinib; first compound 0.03162 µM
  relative viability: 1.14
Bosutinib + Foretinib; first compound 0.1 µM
  relative viability: 1.13
Bosutinib + Foretinib; first compound 1 µM
  relative viability: 0.989
Bosutinib + Alpelisib; first compound 0.01 µM
  relative viability: 1.05
Bosutinib + Alpelisib; first compound 0.03162 µM
  relative viability: 1.03
Bosutinib + Alpelisib; first compound 0.1 µM
  relative viability: 1.05
Bosutinib + Alpelisib; first compound 1 µM
  relative viability: 1.2
Bosutinib + Linsitinib; first compound 0.01 µM
  relative viability: 1.05
Bosutinib + Linsitinib; first compound 0.03162 µM
  relative viability: 0.983
Bosutinib + Linsitinib; first compound 0.1 µM
  relative viability: 1.07
Bosutinib + Linsitinib; first compound 1 µM
  relative viability: 0.92
Bosutinib + Olaparib; first compound 0.01 µM
  relative viability: 1
Bosutinib + Olaparib; first compound 0.03162 µM
  relative viability: 0.982
Bosutinib + Olaparib; first compound 0.1 µM
  relative viability: 0.994
Bosutinib + Olaparib; first compound 1 µM
  relative viability: 0.96
Bosutinib; 0.01 µM
  relative viability: 1.01
Bosutinib; 0.03162 µM
  relative viability: 1.01
Bosutinib; 0.1 µM
  relative viability: 1.03
Bosutinib; 1 µM
  relative viability: 1.02
